Reference: US20250163104A1, “MACROCYCLIC IMMUNOMODULATORS” (priority 2021, published 2025)
pIC50: −log10 of the molar value. Where a SMILES comes first, the peptide text is derived from it. Bridges are numbered along the chain shown (N, C = ends). [ ]: non-standard residue; d: D form. The star is where a group is joined. ξ: configuration not given here. Phe(4-COOH) = N[C@@H](Cc1ccc(C(=O)O)cc1)C(=O)O; Bip = N[C@@H](Cc1ccc(-c2ccccc2)cc1)C(=O)O; Phe(3-Me) = Cc1cccc(C[C@H](N)C(=O)O)c1; 4Pal = N[C@@H](Cc1ccncc1)C(=O)O; Cha = N[C@@H](CC1CCCCC1)C(=O)O; Cit = NC(=O)NCCC[C@H](N)C(=O)O; Tle = CC(C)(C)[C@H](N)C(=O)O; ξCit = NC(=O)NCCCC(N)C(=O)O; Carboxymethyl = O=C(O)C*; Orn = NCCC[C@H](N)C(=O)O; Pra = C#CC[C@H](N)C(=O)O; Dab = NCC[C@H](N)C(=O)O; Dap = NC[C@H](N)C(=O)O

Biological target: T1, human PD-1 / PD-L1-Ig binding on Jurkat cell line over-expressing human PD-1 (Jurkat-PD-1) (Homo sapiens, UniProt Q15116)
T1 construct: expressed in transfected cells; host or cells: Jurkat
T1 sequence (Q15116 25-288): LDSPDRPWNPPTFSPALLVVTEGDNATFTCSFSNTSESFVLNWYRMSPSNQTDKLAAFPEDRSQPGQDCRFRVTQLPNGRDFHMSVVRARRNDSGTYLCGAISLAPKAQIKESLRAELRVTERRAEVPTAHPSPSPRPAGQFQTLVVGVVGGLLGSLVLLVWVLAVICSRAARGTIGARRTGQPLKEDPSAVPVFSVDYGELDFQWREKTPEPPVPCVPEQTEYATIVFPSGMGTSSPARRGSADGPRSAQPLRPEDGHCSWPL
Experiment: Jurkat-PD-1 Cell Binding High-Content Screening Assay (CBA)
Format: cell-based
Conditions: Jurkat-PD-1 cells, PE-labeled PD-L1-Ig 20 nM final; read-out: Jurkat HPD1_PDL1 IC50
Procedure, shortened: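 Cell-bound PE-labeled PD-L1-Ig (20 nM final, 1 h) measured by high-content imaging after fixation and Hoechst 33342 counterstain. Compound was applied first for 2 h at 37° C. to Jurkat cells over-expressing human PD-1 in DMEM with 10% FCS.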

pIC50	Compound
7.83	C#CC[C@H](NC(=O)[C@H](CCN)NC(=O)[C@@H]1CSCC(=O)N[C@@H](CN)C(=O)N[C@@H](Cc2ccc(OCC(=O)O)cc2)C(=O)N[C@@H](CC(=O)O)C(=O)N[C@@H](Cc2cccc(C)c2)C(=O)N[C@@H](C(C)C)C(=O)N[C@@H](Cc2ccc(-c3ccccc3)cc2)C(=O)NC(CCCNC(N)=O)C(=O)N[C@@H](CCCN)C(=O)N[C@H](CC(C)C)C(=O)N[C@@H](CCN)C(=O)N[C@@H](CC2CCCCC2)C(=O)N[C@@H](C(C)C)C(=O)N[C@@H]([C@@H](C)O)C(=O)N1)C(=O)O (stereo partly drawn) [Compound 2258] ({CH2CO}-[Dap]Y(Carboxymethyl)D[Phe(3-Me)]V[Bip][ξCit][Orn][dL][Dab][Cha]VTC[Dab][Pra]-OH; thioether N-14)
7.35	C#CC[C@H](NC(=O)[C@H](C)NC(=O)[C@@H]1CSCC(=O)N[C@@H](CN)C(=O)N[C@@H](Cc2ccc(OCC(=O)O)cc2)C(=O)N[C@@H](CC(=O)O)C(=O)N[C@@H](Cc2cccc(C)c2)C(=O)N[C@@H](C(C)C)C(=O)N[C@@H](Cc2ccc(-c3ccccc3)cc2)C(=O)N[C@@H](CCCNC(N)=O)C(=O)N[C@@H](CCCN)C(=O)N[C@H](CC(C)C)C(=O)N[C@@H](CCN)C(=O)N[C@@H](CC2CCCCC2)C(=O)N[C@@H](C(C)C)C(=O)N[C@@H]([C@@H](C)O)C(=O)N1)C(=O)O [Compound 2259]
7.55	C#CC[C@H](NC(=O)CNC(=O)[C@@H]1CSCC(=O)N[C@@H](CN)C(=O)N[C@@H](Cc2ccc(OCC(=O)O)cc2)C(=O)N[C@@H](CC(=O)O)C(=O)N[C@@H](Cc2cccc(C)c2)C(=O)N[C@@H](C(C)C)C(=O)N[C@@H](Cc2ccc(-c3ccccc3)cc2)C(=O)N[C@@H](CCCNC(N)=O)C(=O)N[C@@H](CCCN)C(=O)N[C@H](CC(C)C)C(=O)N[C@@H](CCN)C(=O)N[C@@H](CC2CCCCC2)C(=O)N[C@@H](C(C)C)C(=O)N[C@@H]([C@@H](C)O)C(=O)N1)C(=O)O [Compound 2260] ({CH2CO}-[Dap]Y(Carboxymethyl)D[Phe(3-Me)]V[Bip][Cit][Orn][dL][Dab][Cha]VTCG[Pra]-OH; thioether N-14)
7.80	C#CC[C@H](NC(=O)[C@H](CCN)NC(=O)[C@@H]1CSCC(=O)N[C@@H](CN)C(=O)N[C@@H](Cc2ccc(OCC(=O)O)cc2)C(=O)N[C@@H](CC(=O)O)C(=O)N[C@@H](Cc2cccc(C)c2)C(=O)N[C@@H](C(C)C)C(=O)N[C@@H](Cc2ccc(-c3ccccc3)cc2)C(=O)N[C@@H](CCCNC(N)=O)C(=O)N[C@@H](CCCN)C(=O)N[C@H](CC(C)C)C(=O)N[C@@H](CCN)C(=O)N[C@@H](CC2CCCCC2)C(=O)N[C@@H](C(C)C)C(=O)N[C@@H]([C@@H](C)O)C(=O)N1)C(N)=O [Compound 2261] ({CH2CO}-[Dap]Y(Carboxymethyl)D[Phe(3-Me)]V[Bip][Cit][Orn][dL][Dab][Cha]VTC[Dab][Pra]-NH2; thioether N-14)
7.20	C#CC[C@H](NC(=O)[C@H](C)NC(=O)[C@@H]1CSCC(=O)N[C@@H](CN)C(=O)N[C@@H](Cc2ccc(OCC(=O)O)cc2)C(=O)N[C@@H](CC(=O)O)C(=O)N[C@@H](Cc2cccc(C)c2)C(=O)N[C@@H](C(C)C)C(=O)N[C@@H](Cc2ccc(-c3ccccc3)cc2)C(=O)N[C@@H](CCCNC(N)=O)C(=O)N[C@@H](CCCN)C(=O)N[C@H](CC(C)C)C(=O)N[C@@H](CCN)C(=O)N[C@@H](CC2CCCCC2)C(=O)N[C@@H](C(C)C)C(=O)N[C@@H]([C@@H](C)O)C(=O)N1)C(=O)O [Compound 2262]
7.92	C#CC[C@H](NC(=O)CNC(=O)[C@@H]1CSCC(=O)N[C@@H](CN)C(=O)N[C@@H](Cc2ccc(OCC(=O)O)cc2)C(=O)N[C@@H](CC(=O)O)C(=O)N[C@@H](Cc2cccc(C)c2)C(=O)N[C@@H](C(C)C)C(=O)N[C@@H](Cc2ccc(-c3ccccc3)cc2)C(=O)N[C@@H](CCCNC(N)=O)C(=O)N[C@@H](CCCN)C(=O)N[C@H](CC(C)C)C(=O)N[C@@H](CCN)C(=O)N[C@@H](CC2CCCCC2)C(=O)N[C@@H](C(C)C)C(=O)N[C@@H]([C@@H](C)O)C(=O)N1)C(=O)O [Compound 2263] ({CH2CO}-[Dap]Y(Carboxymethyl)D[Phe(3-Me)]V[Bip][Cit][Orn][dL][Dab][Cha]VTCG[Pra]-OH; thioether N-14)
7.92	Cc1cccc(C[C@@H]2NC(=O)[C@H](CC(=O)O)NC(=O)[C@H](Cc3ccc(OCC(=O)O)cc3)NC(=O)[C@H](CN)NC(=O)CSC[C@@H](C(N)=O)NC(=O)[C@H](CCCN)NC(=O)[C@H](C(C)C)NC(=O)[C@H](CC3CCCCC3)NC(=O)[C@H](CCN)NC(=O)[C@@H](CC(C)C)NC(=O)[C@H](CCCN)NC(=O)[C@H](Cc3ccc(O)cc3)NC(=O)[C@H](Cc3ccc(-c4ccccc4)cc3)NC(=O)[C@H](C(C)C)NC2=O)c1 [Compound 2264] ({CH2CO}-[Dap]Y(Carboxymethyl)D[Phe(3-Me)]V[Bip]Y[Orn][dL][Dab][Cha]V[Orn]C-NH2; thioether N-14)
7.89	Cc1cccc(C[C@@H]2NC(=O)[C@H](CC(=O)O)NC(=O)[C@H](Cc3ccc(C(=O)O)cc3)NC(=O)[C@H](Cc3ccncc3)NC(=O)CSC[C@@H](C(N)=O)NC(=O)[C@H](CCCN)NC(=O)[C@H](C(C)C)NC(=O)[C@H](CC3CCCCC3)NC(=O)[C@H](CCN)NC(=O)[C@@H](CC(C)C)NC(=O)[C@H](CCCN)NC(=O)[C@H](CCCNC(N)=O)NC(=O)[C@H](Cc3ccc(-c4ccccc4)cc3)NC(=O)[C@H](C(C)C)NC2=O)c1 [Compound 2265] ({CH2CO}-[4Pal][Phe(4-COOH)]D[Phe(3-Me)]V[Bip][Cit][Orn][dL][Dab][Cha]V[Orn]C-NH2; thioether N-14)
7.74	Cc1cccc(C[C@@H]2NC(=O)[C@H](CC(=O)O)NC(=O)[C@H](Cc3ccc(C(=O)O)cc3)NC(=O)[C@H](Cc3ccncc3)NC(=O)CSC[C@@H](C(N)=O)NC(=O)[C@H]([C@@H](C)O)NC(=O)[C@H](C(C)(C)C)NC(=O)[C@H](CC3CCCCC3)NC(=O)[C@H](CCN)NC(=O)[C@@H](CC(C)C)NC(=O)[C@H](CCCN)NC(=O)[C@H](CCCNC(N)=O)NC(=O)[C@H](Cc3ccc(-c4ccccc4)cc3)NC(=O)[C@H](C(C)C)NC2=O)c1 [Compound 2266] ({CH2CO}-[4Pal][Phe(4-COOH)]D[Phe(3-Me)]V[Bip][Cit][Orn][dL][Dab][Cha][Tle]TC-NH2; thioether N-14)
7.35	Cc1cccc(C[C@@H]2NC(=O)[C@H](CC(=O)O)NC(=O)[C@H](Cc3ccc(C(=O)O)cc3)NC(=O)[C@H](Cc3ccncc3)NC(=O)CSC[C@@H](C(N)=O)NC(=O)[C@H]([C@@H](C)O)NC(=O)[C@H](C(C)C)NC(=O)[C@H](CC(C)C)NC(=O)[C@H](CCN)NC(=O)[C@@H](CC(C)C)NC(=O)[C@H](CCCN)NC(=O)[C@H](CCCNC(N)=O)NC(=O)[C@H](Cc3ccc(-c4ccccc4)cc3)NC(=O)[C@H](C(C)C)NC2=O)c1 [Compound 2267] ({CH2CO}-[4Pal][Phe(4-COOH)]D[Phe(3-Me)]V[Bip][Cit][Orn][dL][Dab]LVTC-NH2; thioether N-14)
7.57	Cc1cccc(C[C@@H]2NC(=O)[C@H](CC(=O)O)NC(=O)[C@H](Cc3ccc(C(=O)O)cc3)NC(=O)[C@H](Cc3ccncc3)NC(=O)CSC[C@@H](C(N)=O)NC(=O)[C@H](CO)NC(=O)[C@H](C(C)C)NC(=O)[C@H](CC3CCCCC3)NC(=O)[C@H](CCN)NC(=O)[C@@H](CC(C)C)NC(=O)[C@H](CCCN)NC(=O)[C@H](CCCNC(N)=O)NC(=O)[C@H](Cc3ccc(-c4ccccc4)cc3)NC(=O)[C@H](C(C)C)NC2=O)c1 [Compound 2268] ({CH2CO}-[4Pal][Phe(4-COOH)]D[Phe(3-Me)]V[Bip][Cit][Orn][dL][Dab][Cha]VSC-NH2; thioether N-14)
7.47	Cc1cccc(C[C@@H]2NC(=O)[C@H](CC(=O)O)NC(=O)[C@H](Cc3ccc(C(=O)O)cc3)NC(=O)[C@H](Cc3ccncc3)NC(=O)CSC[C@@H](C(N)=O)NC(=O)[C@H](CCC(=O)O)NC(=O)[C@H](C(C)C)NC(=O)[C@H](CC3CCCCC3)NC(=O)[C@H](CCN)NC(=O)[C@@H](CC(C)C)NC(=O)[C@H](CCCN)NC(=O)[C@H](CCCNC(N)=O)NC(=O)[C@H](Cc3ccc(-c4ccccc4)cc3)NC(=O)[C@H](C(C)C)NC2=O)c1 [Compound 2269] ({CH2CO}-[4Pal][Phe(4-COOH)]D[Phe(3-Me)]V[Bip][Cit][Orn][dL][Dab][Cha]VEC-NH2; thioether N-14)
7.61	Cc1cccc(C[C@@H]2NC(=O)[C@H](CC(=O)O)NC(=O)[C@H](Cc3ccc(C(=O)O)cc3)NC(=O)[C@H](Cc3ccncc3)NC(=O)CSC[C@@H](C(N)=O)NC(=O)[C@H](CC(=O)O)NC(=O)[C@H](C(C)C)NC(=O)[C@H](CC3CCCCC3)NC(=O)[C@H](CCN)NC(=O)[C@@H](CC(C)C)NC(=O)[C@H](CCCN)NC(=O)[C@H](CCCNC(N)=O)NC(=O)[C@H](Cc3ccc(-c4ccccc4)cc3)NC(=O)[C@H](C(C)C)NC2=O)c1 [Compound 2270] ({CH2CO}-[4Pal][Phe(4-COOH)]D[Phe(3-Me)]V[Bip][Cit][Orn][dL][Dab][Cha]VDC-NH2; thioether N-14)
7.80	Cc1cccc(C[C@@H]2NC(=O)[C@H](CC(=O)O)NC(=O)[C@H](Cc3ccc(C(=O)O)cc3)NC(=O)[C@H](Cc3ccncc3)NC(=O)CSC[C@@H](C(N)=O)NC(=O)[C@H](CC(N)=O)NC(=O)[C@H](C(C)C)NC(=O)[C@H](CC3CCCCC3)NC(=O)[C@H](CCN)NC(=O)[C@@H](CC(C)C)NC(=O)[C@H](CCCN)NC(=O)[C@H](CCCNC(N)=O)NC(=O)[C@H](Cc3ccc(-c4ccccc4)cc3)NC(=O)[C@H](C(C)C)NC2=O)c1 [Compound 2271] ({CH2CO}-[4Pal][Phe(4-COOH)]D[Phe(3-Me)]V[Bip][Cit][Orn][dL][Dab][Cha]VNC-NH2; thioether N-14)
7.49	Cc1cccc(C[C@@H]2NC(=O)[C@H](CC(=O)O)NC(=O)[C@H](Cc3ccc(C(=O)O)cc3)NC(=O)[C@H](Cc3ccncc3)NC(=O)CSC[C@@H](C(N)=O)NC(=O)[C@H](CCC(N)=O)NC(=O)[C@H](C(C)C)NC(=O)[C@H](CC3CCCCC3)NC(=O)[C@H](CCN)NC(=O)[C@@H](CC(C)C)NC(=O)[C@H](CCCN)NC(=O)[C@H](CCCNC(N)=O)NC(=O)[C@H](Cc3ccc(-c4ccccc4)cc3)NC(=O)[C@H](C(C)C)NC2=O)c1 [Compound 2272] ({CH2CO}-[4Pal][Phe(4-COOH)]D[Phe(3-Me)]V[Bip][Cit][Orn][dL][Dab][Cha]VQC-NH2; thioether N-14)
